The target in data set [1] is T1, A2A receptor (Homo sapiens, UniProt P29274).
T1 construct: host or cells: HEK-293
As to the kind of experiment: Inhibition of cAMP production in HEK cells (LANCE Ultra cAMP, TR-FRET). The settings on record: HEK-293 cells with stable transfection of A2A receptor. The data set is classed as cell-based. On the procedure: When the A2A receptor is activated, is induces the production of cAMP. The present assay thus aims at showing that cAMP production is inhibited in HEK cells in response to their exposure to the compounds of the invention. HEK-293 cells with a stable transfection of A2A receptor were bought from PerkinElmer® (#ES-011-C). Cells were cultured in EMEM medium (Lonza, #BE12-611F) supplemented with 10% FBS (Lonza, #DE14-801F) and 200 μg/mL of G418 (Tocris, #4131) at 37° C. and 5% CO2. Fresh media without the selection marker was added on the day immediately before the experiment to stop selection pressure. cAMP inhibition and antagonist IC50 determination were accessed using the LANCE® Ultra cAMP Kit from PerkinElmer® (#TRF0262) on white half area 96 well plates (PerkinElmer®, #6005560). The assays were conducted in two different stimulation buffers: • a) normal with 1×HBSS (Gibco®, #141750-95), 5 mM HEPES (Lonza, #BE17-737E), 0.1% BSA and 25 μM Rolipram and • b) HSA with 1×HBSS (Gibco®, #141750-95), 5 mM HEPES (Lonza, #BE17-737E), 2% Human Serum Albumin (Sigma-Aldrich®—A1653), 30 μM of EHNA (Tocris—#1261) and 100 μM Rolipram. Stimulation buffer b) mimics the human situation by increasing the amount of albumin present in the assay. Compounds of the present invention were diluted 100× in either of the buffers depending on the assay performed. A total of 1000 cells per well were pre-incubated for 10 minutes with the compounds of the present invention before adding the corresponded EC80 of A2A agonist (3 nM of NECA in normal buffer) or 5 μM of Adenosine (in HAS buffer) for a total reaction time of 30 minutes. The total volume of the reaction was 20 μl (10 μl of cells, 5 μl of antagonist and 5 μl of agonist). The reaction was finalized by adding 10 μl of 4×EU-cAMP tracer working solution and 10 μl of 4× ULight-anti-cAMP working solution. The TR-FRET signal was measured after 1 hour using a Spectramax Paradigm (Molecular Devices).

The nature of data set [2]: Permeability and efflux in Caco-2 cells. The data set is classed as in vitro ADME. The settings on record: human, Caco-2 monolayer, bidirectional transport, pH 7.4. The protocol: The transport buffer (TB, pH 7.4) used in the study is Hank's Buffered Saline Solution (HBSS, Gibco, Cat #14025-076) with 10 mM HEPES at pH 7.4. Fetal bovine serum (FBS) (Corning, Cat #Corning-35-076-CV, or other vendors), Minimum Essential Media (MEM) (Gibco, Cat #41500-034) as well as its supplements are purchased from Invitrogen (Carlsbad, Calif., USA). Caco-2 cell line (Cat #HTB-37) is purchased from the ATCC (Rockville, Md., USA). The organic solvents used in the study are purchased from Sigma Aldrich (St. Louis, Mo., USA). For reference compounds (fenoterol, propranolol and digoxin) and test compounds, 0.4 mM intermediate solutions are prepared by diluting 10 mM or other appropriate concentrations of DMSO stock solutions with DMSO. 2 μM dosing solutions for reference compounds and test compounds are prepared by spiking the appropriate volume of intermediate solution to TB with and without 1 μM Zosuquidar. The final concentration of DMSO is no more than 1% (v/v). Caco-2 cells are grown in MEM supplemented with 2 mM L-glutamine, 10% FBS, 100 U/mL penicillin-G and 100 μg/mL streptomycin. The cells are incubated at 37° C., 5% CO2 and relatively saturated humidity. After reaching 80-90% confluency, the cells are gently detached with 0.05% trypsin-EDTA solution. Cells at passage 30-50 are seeded on the 96-well BD insert system (Cat #359274) at the density of 1×10^5 cells/cm2 and cultured for 21-28 days with medium changed every 4-5 days. TB and dosing solutions were pre-warmed to 37° C. before transport assay. The cell monolayer was washed twice with HBSS containing 10 mM HEPES. For A-B (apical to basolateral) directional transport assay, 75 μL dosing solution is added to the apical well. Fill each basolateral well with 250 μL TB. For B-A (basolateral to apical) directional transport assay, 250 μL of dosing solution is added to the basolateral well after filling each apical well with 75 μL TB. Test compound(s) and digoxin are tested at 2 μM in the presence or absence of 1 μM zosuquidar bidirectionally in duplicate. Atenolol and propranolol are tested at 2 μM in the absence of zosuquidar in A to B direction in duplicate. The plates are incubated for 120 minutes at 37° C. with 5% C02 and saturated humidity. The time zero samples are generated by mixing 50 μL initial dosing solution of test compound or reference compound with 100 μL TB and 250 μL quench solution (acetonitrile (ACN) or other appropriate solvent with internal standard(s), based on the bioanalytical method development). At 120 minutes, 150 μL of solution is collected from each A-B receiver well followed by addition of 250 μL quench solution to get A-B receiver sample. And for other samples (A-B donor, B-A donor and receiver), 50 μL of solution is collected from each corresponding well followed by addition of 250 μL quench solution and 100 μL TB. All samples are vortex-mixed and centrifuged at 3220 g for 20 minutes. Subsequently, supernatant is diluted with ultra pure water for LC-MS/MS analysis. The concentrations of test compound in all samples are determined by LC-MS/MS and expressed as peak area ratio of analyte to internal standard. The concentration of samples is expressed using the peak area ratio of Analyte to Internal Standard (Analyte/IS). The apparent permeability coefficient (Papp) is calculated using the following equation: Papp=VR/(Area*Time)*(CR/C0) wherein VR is the solution volume in the receiver chamber (0.075 mL on the apical side, 0.25 mL on the basolateral side); Area is the surface area for the transport, i.e. 0.0804 cm2 for the area of the monolayer; Time is incubation time, expressed in seconds, 2 h=2×3600 s; C0 is the initial concentration in the donor chamber; CR is the final concentrations in receiver chamber. The efflux ratio is calculated using the following equation: Efflux ratio=[…]) where Papp (A-B) and Papp (B-A) are the Papp values of compound in Apical to Basolateral and Basolateral to Apical directional transport, respectively.

Setting [3] is: HSA stimulation buffer, 5 μM Adenosine as agonist, 2.0% HSA, read-out: IC50 (nM) (5 μM Adenosine as agonist, 2.0% HSA).
[4] abbreviates: normal stimulation buffer, 3 nM NECA as agonist, 0.1% BSA, read-out: IC50 (nM) (3 nM NECA as agonist, 0.1% BSA).

Where two headings read alike, the source gives them in different places.

T1 sequence (P29274 whole entry): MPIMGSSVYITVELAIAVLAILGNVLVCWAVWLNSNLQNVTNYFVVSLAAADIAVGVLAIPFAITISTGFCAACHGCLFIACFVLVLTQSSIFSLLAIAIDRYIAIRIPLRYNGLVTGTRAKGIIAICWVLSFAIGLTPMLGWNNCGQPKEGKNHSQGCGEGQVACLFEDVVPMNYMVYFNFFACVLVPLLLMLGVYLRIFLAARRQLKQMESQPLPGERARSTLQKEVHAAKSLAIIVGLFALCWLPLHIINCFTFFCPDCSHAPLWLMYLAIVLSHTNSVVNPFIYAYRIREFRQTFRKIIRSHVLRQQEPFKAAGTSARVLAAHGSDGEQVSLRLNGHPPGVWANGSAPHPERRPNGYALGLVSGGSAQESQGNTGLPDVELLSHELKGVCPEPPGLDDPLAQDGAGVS

As a reminder, the IC50 is the concentration needed to halve the response being measured. For `CN(CCN1CCN(c2cc(OCC[S@+](C)[O-])c(F)cc2F)CC1)c1nc(N)n2nc(-c3ccco3)nc2n1` [Compound 1, (S)—N5-(2-(4-(2,4-difluoro-5-(2-(methylsulfinyl)ethoxy)phenyl)piperazin-1-yl)ethyl)-2-(furan-2-yl)-N5-methyl-[1,2,4]triazolo[1,5-a][1,3,5]triazine-5,7-diamine], the half-maximal inhibitory concentration (IC50) in data set [1] (setting [3]) amounted to 33 nM; in data set [1] (setting [4]), 0.4 nM.
For `CN(CCN1CCN(c2cc(OCC[S@@+](C)[O-])c(F)cc2F)CC1)c1nc(N)n2nc(-c3ccco3)nc2n1` [Compound 2, (R)—N5-(2-(4-(2,4-difluoro-5-(2-(methylsulfinyl)ethoxy)phenyl)piperazin-1-yl)ethyl)-2-(furan-2-yl)-N5-methyl-[1,2,4]triazolo[1,5-a][1,3,5]triazine-5,7-diamine] the same measures were 28 nM and 0.6 nM.
Broadly, the efflux ratio is the permeability from basolateral to apical divided by that in the opposite direction, in the common usage. For `CNC(=O)c1cc(N2CCN(CCn3c(=O)n(C)c4c3nc(N)n3nc(-c5ccco5)nc43)CC2)c(F)cc1F` [Compound 3, 5-(4-(2-(5-amino-8-(furan-2-yl)-1-methyl-2-oxo-1H-[1,2,4]triazolo[5,1-i]purin-3(2H)-yl)ethyl)piperazin-1-yl)-2,4-difluoro-N-methylbenzamide], the efflux ratio at 120 min, 2 μM in data set [2] was found to be 53. Further, the IC50 turned out to be 176 nM in data set [1] (setting [3]) and 0.1 nM in data set [1] (setting [4]).
`CNC(=O)c1cc(N2CCN(CCn3ncc4c3nc(N)n3nc(-c5ccco5)nc43)CC2)c(F)cc1F` [Compound 4, 5-(4-(2-(5-amino-2-(furan-2-yl)-7H-pyrazolo[4,3-e][1,2,4]triazolo[1,5-c]pyrimidin-7-yl)ethyl)piperazin-1-yl)-2,4-difluoro-N-methylbenzamide]: the efflux ratio at 120 min, 2 μM in data set [2] is 8. Further, the concentration for half-maximal inhibition (IC50) in data set [1] (setting [3]) was 150 nM; in data set [1] (setting [4]) it was 0.3 nM.
On the same counts, the results for `CN(CCN1CCN(c2cc(OCCS(C)(=O)=O)c(F)cc2F)CC1)c1nc(N)n2nc(-c3ccco3)nc2n1` [Compound 5, N5-(2-(4-(2,4-difluoro-5-(2-(methylsulfonyl)ethoxy)phenyl)piperazin-1-yl)ethyl)-2-(furan-2-yl)-N5-methyl-[1,2,4]triazolo[1,5-a][1,3,5]triazine-5,7-diamine] are above 340, 41 nM and 0.6 nM.
As for `CS(=O)(=O)CCOc1cc(N2CCN(CCNc3nc(N)n4nc(-c5ccco5)nc4n3)CC2)c(F)cc1F` [Compound 6, N5-(2-(4-(2,4-difluoro-5-(2-(methylsulfonyl)ethoxy)phenyl)piperazin-1-yl)ethyl)-2-(furan-2-yl)-[1,2,4]triazolo[1,5-a][1,3,5]triazine-5,7-diamine], the IC50 was determined as 63 nM in data set [1] (setting [3]) and 0.9 nM in data set [1] (setting [4]).
For `Cn1c(=O)n(CCN2CCN(c3cc(OCC[S@+](C)[O-])c(F)cc3F)CC2)c2nc(N)n3nc(-c4ccco4)nc3c21` [Compound 7, (S)-5-amino-3-(2-(4-(2,4-difluoro-5-(2-(methylsulfinyl)ethoxy)phenyl)piperazin-1-yl)ethyl)-8-(furan-2-yl)-1-methyl-1H-[1,2,4]triazolo[5,1-i]purin-2-one], the efflux ratio at 120 min, 2 μM in data set [2] was above 500. Also, the IC50 in data set [1] (setting [3]) worked out at 64 nM; in data set [1] (setting [4]), 0.3 nM.
For `Cn1c(=O)n(CCN2CCN(c3cc(OCC[S@@+](C)[O-])c(F)cc3F)CC2)c2nc(N)n3nc(-c4ccco4)nc3c21` [Compound 8, (R)-5-amino-3-(2-(4-(2,4-difluoro-5-(2-(methylsulfinyl)ethoxy)-phenyl)piperazin-1-yl)ethyl)-8-(furan-2-yl)-1-methyl-1H-[1,2,4]triazolo[5,1-i]purin-2-one] the same measures were above 400, 70 nM and 0.3 nM.
With `Cn1c(=O)n(CCN2CCN(c3cc(OCCS(C)(=O)=O)c(F)cc3F)CC2)c2nc(N)n3nc(-c4ccco4)nc3c21` [Compound 9, 5-amino-3-(2-(4-(2,4-difluoro-5-(2-(methylsulfonyl)ethoxy)phenyl)piperazin-1-yl)ethyl)-8-(furan-2-yl)-1-methyl-1H-[1,2,4]triazolo[5,1-i]purin-2(3H)-one], the efflux ratio at 120 min, 2 μM in data set [2] is above 300. Moreover, the half-maximal inhibitory concentration (IC50) in data set [1] (setting [3]) was 104 nM; in data set [1] (setting [4]), 0.5 nM.
Turning to `Nc1nc(NCCN2CCN(c3cc(N4CC[S+]([O-])CC4)c(F)cc3F)CC2)nc2nc(-c3ccco3)nn12` [Compound 15, 4-(5-(4-(2-((7-amino-2-(furan-2-yl)-[1,2,4]triazolo[1,5-a][1,3,5]triazin-5-yl)amino)ethyl)piperazin-1-yl)-2,4-difluorophenyl)thiomorpholine 1-oxide], the IC50 in data set [1] (setting [3]) stood at 81 nM; in data set [1] (setting [4]), 1.7 nM.
As to `C[S@@+]([O-])c1cc(N2CCN(CCNc3nc(N)n4nc(-c5ccco5)nc4n3)CC2)c(F)cc1F` [Compound 16, (R)—N5-(2-(4-(2,4-difluoro-5-(methylsulfinyl)phenyl)piperazin-1-yl)ethyl)-2-(furan-2-yl)-[1,2,4]triazolo[1,5-a][1,3,5]triazine-5,7-diamine], the IC50 in data set [1] (setting [3]) came to 73 nM; in data set [1] (setting [4]), 7.4 nM.
`C[S@+]([O-])c1cc(N2CCN(CCNc3nc(N)n4nc(-c5ccco5)nc4n3)CC2)c(F)cc1F` [Compound 17, (S)—N5-(2-(4-(2,4-difluoro-5-(methylsulfinyl)phenyl)piperazin-1-yl)ethyl)-2-(furan-2-yl)-[1,2,4]triazolo[1,5-a][1,3,5]triazine-5,7-diamine]: the half-maximal inhibitory concentration (IC50) in data set [1] (setting [3]) came out at 201 nM; in data set [1] (setting [4]), 1.8 nM.

These data come from patent publication US11427594B2, “Non brain penetrant A2A inhibitors and methods for use in the treatment of cancers” (iTeos Belgium SA, priority 2018, dated 2022).
